# Reference: paper PMC8290231 (Cancer Medicine, 2021)
# Where two headings read alike, the source gives them in different places.
# Assays:
# Ba/F3(+IL‐3) = assay: CCK-8 proliferation assay in parental Ba/F3 cells; type: cell-based; conditions: Mus musculus, read-out: IC50 (μΜ) Ba/F3(+IL‐3)
# Method: The Ba/F3 cell lines stably expressing FGFR1, FGFR1‐V561M, FGFR1‐V561F, FGFR1‐K656N, and FGFR1‐K656E were self‐established through electroporation pCDNA3.1‐TEL plasmids using the Amaxa Cell Line Nucleofector Kit V (Lonza, Cologne, Germany). Stable cell lines were selected by G418 (Merck, USA) and then withdrawal of IL‐3 (R&D). […] Parental Ba/F3 cells were maintained in RPMI 1640 supplemented with 10% FBS, 100 U/ml of penicillin, […] of streptomycin, and 10 ng/ml of IL‐3, while all Ba/F3 stable cell lines were cultured in the same medium without IL‐3.
# (§1) Cells were seeded in 96‐well plate in complete medium (1000–6000 cells/well) and cultured for overnight. Then the cells were exposed to gradient concentrations (0.0005–10 μM) of compounds. Cell proliferation was analyzed by Cell Counting Kit 8 (CK04, Dojindo Laboratories, Japan) after co‐incubation for a further 72 h. IC50 values were calculated by fitting of concentration–response curves using GraphPad Prism 8.01 software. Each assay was repeated at least three times.
# There is, however, no commercially available FGFR1 mutant kinase to validate this. Therefore, we constructed Ba/F3 model cells stably expressing FGFR1‐WT, K656E, K656N, V561M, and V561F mutations.
# SNU16 = assay: CCK-8 cell proliferation assay; type: cell-based; conditions: Homo sapiens, SNU-16; FGFR2 amplification; CCK-8, 72 h; read-out: antiproliferative IC50, SNU16
# Method: (§2) The base medium for MDA‐MB‐453 cell line is DMEM medium (CORNING, USA). All other cell lines were cultured in RPMI‐1640 medium supplemented with 10% FBS, 100 U/ml of penicillin, and […] of streptomycin in 5% CO2 at 37℃. The cells in the logarithmic growth phase were used for the experiments.
# as §1
# (§3) The expression and activation levels of FGFR1–4 in these cells were determined via western blot experiments (Figure S1).
# NCI‐H716 = assay: CCK-8 cell proliferation assay; type: cell-based; conditions: Homo sapiens, NCI-H716; FGFR2 amplification; CCK-8, 72 h; read-out: antiproliferative IC50, NCI‐H716
# Method: as §2, §1, §3
# RT112 = assay: CCK-8 cell proliferation assay; type: cell-based; conditions: Homo sapiens, RT-112; FGFR3‐TACC3; CCK-8, 72 h; read-out: antiproliferative IC50, RT112
# Method: as §2, §1, §3
# MKN‐1 = assay: CCK-8 cell proliferation assay; type: cell-based; conditions: Homo sapiens, MKN-1; negative control; CCK-8, 72 h; read-out: antiproliferative IC50, MKN‐1
# Method: as §2, §1, §3
# Ba/F3‐FGFR1‐V561F = assay: Cell cycle analysis by flow cytometry (propidium iodide); type: cell-based
# Method: About 6 × 10^5 cells were re‐suspended in 150 μl of BD Cytofix/Cytoperm buffer solution I for 10 min at room temperature. The cell suspensions were added with BD Cytofix/Cytoperm buffer solution II and incubated with another 10 min at room temperature, and then incubated with 200 μl of propidium iodide buffer (0.1 mg/ml) in the dark for 10 min at 4℃. Assays were performed with a Guava easyCyte flow cytometer (Merck, USA).
# [1] = system: Ba/F3‐FGFR1‐V561M xenograft; assay: Mouse xenograft tumor model; type: in vivo, CB17‐SCID mice; conditions: 20 mg/kg, p.o., q2d (b60 prints Bid)
# From the text: (§4) All animal studies were approved by the Institutional Animal Care and Use Committee. Male CB17‐SCID mice were purchased from Vital River Laboratory Animal Technology Inc. (Beijing, China). The right flanks of SCID mice were subcutaneously injected with 2 x 10^6 Ba/F3‐FGFR1, Ba/F3‐FGFR1‐V561F, or Ba/F3‐FGFR1‐V561M cells, respectively. When the average tumor volume reached 100–200 mm^3, mice bearing tumor were randomly divided into groups and treated with compounds or vehicle. All the compounds were suspended in 0.5% CMC‐Na aqueous solution. […] The body weight and tumor volume of animals were measured once every 2 days. Tumor volumes were calculated as L×W×W/2, where L and W are the length and width of the tumor, respectively. At the experiment terminal, tumor tissues were dissected, paraffin embedded, and sectioned for hematoxylin and eosin (H&E), immunohistochemistry (IHC), and TUNEL analysis.
# FGFR3 = FGFR3 (Homo sapiens, UniProt P22607); assay: FRET-based Z′-Lyte kinase assay; type: biochemical
# FGFR3, sequence (P22607 23-806): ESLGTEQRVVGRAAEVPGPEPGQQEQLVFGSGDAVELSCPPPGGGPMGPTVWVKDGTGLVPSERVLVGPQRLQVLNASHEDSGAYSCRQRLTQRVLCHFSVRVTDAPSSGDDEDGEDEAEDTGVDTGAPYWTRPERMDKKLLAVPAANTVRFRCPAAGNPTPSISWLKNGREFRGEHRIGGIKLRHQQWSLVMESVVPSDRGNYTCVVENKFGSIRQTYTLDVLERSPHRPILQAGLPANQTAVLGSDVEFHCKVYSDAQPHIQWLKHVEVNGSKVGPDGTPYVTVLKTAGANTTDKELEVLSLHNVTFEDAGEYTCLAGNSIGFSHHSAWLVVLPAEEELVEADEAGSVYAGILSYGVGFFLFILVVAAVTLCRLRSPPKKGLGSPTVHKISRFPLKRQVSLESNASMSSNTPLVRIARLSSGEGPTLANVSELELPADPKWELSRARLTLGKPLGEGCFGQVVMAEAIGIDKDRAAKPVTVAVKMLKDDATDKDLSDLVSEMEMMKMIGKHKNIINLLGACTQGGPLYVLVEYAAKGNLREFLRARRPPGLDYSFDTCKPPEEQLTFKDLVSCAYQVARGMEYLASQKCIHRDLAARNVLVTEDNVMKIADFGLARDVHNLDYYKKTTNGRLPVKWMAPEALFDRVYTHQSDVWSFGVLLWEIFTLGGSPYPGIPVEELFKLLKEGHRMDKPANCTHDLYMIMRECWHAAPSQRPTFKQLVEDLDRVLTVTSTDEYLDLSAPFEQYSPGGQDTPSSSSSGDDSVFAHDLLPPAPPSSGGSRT
# FGFR1‐V561F = assay: Cellular thermal shift assay (CETSA) in Ba/F3‐FGFR1‐V561F cells; type: binding; conditions: 100 nM, 38.0 to 57.8℃
# Method: Pairs consisting of one experimental aliquot and one DMSO aliquot were heated from 38.0 to 57.8℃ for 3 min. Then, the samples were exposed to liquid nitrogen for 10 min, and then placed in a water bath at 37℃ for 10 min. After three freeze–thaw cycles, cell lysates were centrifuged at 12000 rpm at 4℃ for 10 min, and then boiled for 15 min. The soluble supernatant was used for WB analysis.
# Drug‐treated cells were heated at gradient temperature from 38℃ to 57.8℃ for 3 min and then lysed, centrifuged to separate the soluble fractions from precipitates. The soluble fractions were analyzed by immunoblotting. Relative band intensities were plotted as a function of temperature followed a sigmoidal trend.
# FGFR2‐N550K = target: T1, FGFR2‐N550K (Homo sapiens, UniProt P21802, N549K); assay: KINOMEscan binding affinity assay
# T1 construct: purchased KINOMEscan™ (commercial assay)
# T1 sequence (P21802 22-822 isoform P21802-3 N550K limits assumed): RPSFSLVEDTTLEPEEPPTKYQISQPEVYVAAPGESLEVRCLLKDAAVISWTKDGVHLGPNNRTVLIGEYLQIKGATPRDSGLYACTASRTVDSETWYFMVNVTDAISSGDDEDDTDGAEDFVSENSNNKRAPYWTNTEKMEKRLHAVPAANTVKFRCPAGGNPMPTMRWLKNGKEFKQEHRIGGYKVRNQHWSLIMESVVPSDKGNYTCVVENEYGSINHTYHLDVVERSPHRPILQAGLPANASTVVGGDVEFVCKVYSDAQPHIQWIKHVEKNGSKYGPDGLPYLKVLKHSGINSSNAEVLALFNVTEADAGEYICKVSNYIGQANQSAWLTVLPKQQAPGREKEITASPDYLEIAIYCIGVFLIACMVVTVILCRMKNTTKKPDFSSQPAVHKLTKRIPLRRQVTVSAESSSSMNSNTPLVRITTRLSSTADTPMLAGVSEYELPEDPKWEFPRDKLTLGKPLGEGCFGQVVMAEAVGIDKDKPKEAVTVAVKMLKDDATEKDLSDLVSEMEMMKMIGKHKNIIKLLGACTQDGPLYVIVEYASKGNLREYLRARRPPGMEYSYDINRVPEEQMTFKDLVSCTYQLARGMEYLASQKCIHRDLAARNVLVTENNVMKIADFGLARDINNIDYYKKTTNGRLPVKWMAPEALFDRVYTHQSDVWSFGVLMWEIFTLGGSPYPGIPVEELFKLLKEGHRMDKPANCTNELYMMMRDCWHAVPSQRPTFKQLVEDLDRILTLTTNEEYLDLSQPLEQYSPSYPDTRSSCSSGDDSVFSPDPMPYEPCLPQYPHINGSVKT
# FGFR1 = target: T2, FGFR1 (Homo sapiens, UniProt P11362); assay: KINOMEscan binding affinity assay
# T2 construct: purchased Invitrogen (Waltham, MA, USA)
# T2 sequence (P11362 22-822): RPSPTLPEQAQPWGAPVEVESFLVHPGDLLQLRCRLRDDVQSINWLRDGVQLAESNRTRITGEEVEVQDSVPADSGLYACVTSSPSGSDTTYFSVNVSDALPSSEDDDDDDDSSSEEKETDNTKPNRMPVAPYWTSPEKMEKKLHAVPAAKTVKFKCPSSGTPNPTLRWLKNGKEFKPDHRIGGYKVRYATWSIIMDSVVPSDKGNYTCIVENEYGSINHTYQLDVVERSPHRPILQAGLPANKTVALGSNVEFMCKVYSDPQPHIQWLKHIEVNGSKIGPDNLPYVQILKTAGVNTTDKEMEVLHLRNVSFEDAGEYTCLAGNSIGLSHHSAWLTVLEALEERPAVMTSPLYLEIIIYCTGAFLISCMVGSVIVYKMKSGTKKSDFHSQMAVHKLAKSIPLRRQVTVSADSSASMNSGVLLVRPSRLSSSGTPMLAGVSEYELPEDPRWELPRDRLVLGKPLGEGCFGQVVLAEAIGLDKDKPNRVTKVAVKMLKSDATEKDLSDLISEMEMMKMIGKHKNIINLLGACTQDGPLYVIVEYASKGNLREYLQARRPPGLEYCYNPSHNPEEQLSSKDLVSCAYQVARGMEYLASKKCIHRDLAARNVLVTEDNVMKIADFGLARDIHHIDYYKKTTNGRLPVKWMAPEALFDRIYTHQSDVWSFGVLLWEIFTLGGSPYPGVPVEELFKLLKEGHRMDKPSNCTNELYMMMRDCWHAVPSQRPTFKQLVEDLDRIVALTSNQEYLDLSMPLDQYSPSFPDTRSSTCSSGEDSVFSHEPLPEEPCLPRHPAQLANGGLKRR
# FGFR4 = FGFR4 (Homo sapiens, UniProt P22455); assay: KINOMEscan binding affinity assay
# FGFR4, sequence (P22455 22-802): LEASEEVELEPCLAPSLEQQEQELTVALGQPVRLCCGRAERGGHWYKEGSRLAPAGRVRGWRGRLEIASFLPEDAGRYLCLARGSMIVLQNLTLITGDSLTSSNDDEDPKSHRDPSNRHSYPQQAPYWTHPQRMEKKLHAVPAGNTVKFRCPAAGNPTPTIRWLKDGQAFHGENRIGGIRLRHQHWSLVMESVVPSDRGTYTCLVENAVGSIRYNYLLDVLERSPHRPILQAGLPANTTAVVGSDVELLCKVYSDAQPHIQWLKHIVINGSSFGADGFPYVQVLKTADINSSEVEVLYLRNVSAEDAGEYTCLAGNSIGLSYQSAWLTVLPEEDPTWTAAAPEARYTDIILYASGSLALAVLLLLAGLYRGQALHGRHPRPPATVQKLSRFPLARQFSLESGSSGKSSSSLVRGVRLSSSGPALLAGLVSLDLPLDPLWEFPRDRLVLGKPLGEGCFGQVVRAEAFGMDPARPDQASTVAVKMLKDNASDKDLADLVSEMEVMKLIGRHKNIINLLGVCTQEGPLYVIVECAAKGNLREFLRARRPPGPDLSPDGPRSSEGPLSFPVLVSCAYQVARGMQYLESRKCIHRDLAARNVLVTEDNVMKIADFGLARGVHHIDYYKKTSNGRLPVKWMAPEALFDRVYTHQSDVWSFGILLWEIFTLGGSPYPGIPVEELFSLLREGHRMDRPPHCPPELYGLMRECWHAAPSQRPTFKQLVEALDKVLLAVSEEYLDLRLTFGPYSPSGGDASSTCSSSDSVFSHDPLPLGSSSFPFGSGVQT
# [2] = system: FGFR1 in all Ba/F3 stable cells; assay: Western blot of total FGFR1 protein; type: cell-based; conditions: 4 h
# Method: Cells were treated with different concentrations of compound or DMSO for indicated time. Then, cells were lysed with 1 × SDS sample lysis buffer (recommended by CST). […] After blocking with 5% BSA in TBST solution (0.5% Tween‐20) at room temperature for 4 hrs, the membranes were incubated with the corresponding primary antibody (1:2000–1:200) at 4℃ overnight. After washing with TBST for 3–5 times, the HRP‐conjugated secondary antibodies were incubated for 2 hrs. The protein signals were detected with Amersham Imager 600 system (GE, Boston, MA, USA) using an ECL western blotting detection kit (Thermo Fisher Scientific, Waltham, MA, USA).
# However, its effects on FGFR1 downstream signal pathway in A549 cells were very weak as a negative control.
# Ba/F3‐FGFR1 = assay: Apoptosis assay by flow cytometry (Annexin V / 7-AAD); type: cell-based; conditions: Ba/F3‐FGFR1, 100 nM, 48 h
# Method: After incubation, cells were collected and washed twice with pre‐cold PBS. About 6 × 10^5 cells were resuspended in 100 μl of 1× BD binding buffer solution (#556454, BD), and then stained with 7‐ADD (#559925, BD) and Annexin V‐PE (#556422, BD) in the dark for 15 min. Finally, 400 μl of 1×BD binding buffer solution were added to stop dyeing. The cells were then measured on a Guava easyCyte flow cytometer (Merck, USA).
# [3] = Mortality and body weight in xenograft studies; type: in vivo, CB17‐SCID mice; conditions: 10 or 20 mg/kg q2d, oral gavage, xenograft mice
# From the text: as §4
Compound,"IC50 (Ba/F3(+IL‐3); BaF3, parental cells with IL-3, CCK-8, 72 h) [µM]",IC50 (SNU16) [µM],IC50 (NCI‐H716) [µM],IC50 (RT112) [µM],IC50 (MKN‐1) [µM],effect on cell cycle (Ba/F3‐FGFR1‐V561F; 1000 nM),tumor growth inhibition (TGI) [1] [%],IC50 (FGFR3) [nM],EC50 (FGFR3; Figure 1B curve fit) [µM],thermal stability of FGFR1‐V561F protein (CETSA) (FGFR1‐V561F),Kd (FGFR2‐N550K) [µM],"IC50 (Ba/F3(+IL‐3); BaF3, 72 h) [µM]",Kd (FGFR1) [nM],Kd (FGFR4) [nM],dose showing obvious degradation of FGFR1 [2] [nM],"G0/G1 phase (Ba/F3‐FGFR1‐V561F; 100 nM, 24 h) [%]",apoptosis (Ba/F3‐FGFR1) [%],mortality and body weight during experiment [3]
CCN1CCN(c2ccc(Nc3cc(N(C)C(=O)Nc4c(Cl)c(OC)cc(OC)c4Cl)ncn3)cc2)CC1 [BGJ398],5.66 ± 0.88,0.0186 ± 0.0063,0.0042 ± 0.0008,0.233 ± 0.0767,5.11 ± 0.481,weak effect,,,,,,,,,,,,
Cc1ccc(C(=O)Nc2ccc(CN3CCN(C)CC3)c(C(F)(F)F)c2)cc1C#Cc1cnc2[nH]ncc2c1 [GZD824],,0.0144 ± 0.0048,0.004 ± 0.0005,0.091 ± 0.0057,0.743 ± 0.0318,,49.8,8.1 ± 0.15,0.0082,significantly enhanced,0.017 ± 0.0057,1.71 ± 0.59,7.3 ± 0.3,19 ± 1.4,≥ 33.3,71.13,65.73,no mortality or significant loss of body weight
